Reference: patent US20130252903A1, “COMPOSITIONS FOR REDUCING OXIDATIVE STRESS AND USES THEREOF” (Universitaetsklinikum Muenster, priority 2007, published 2013)
Square brackets hold non-standard residues; d marks the D form. Ends that are not written are not given here.

How the values were obtained:
human dermal fibroblasts = experiment: UVA-induced intracellular amplification of ROS (dihydrorhodamine 123, flow cytometry); type: cell-based; conditions: for effect on UVA-induced intracellular amplification of ROS compared with vitamin C (ascorbate): peptide 10^-8M vs vitamin C 10^-2M, FIG. 2; for effect on UVA-induced intracellular amplification of ROS ("oxidative stress"): peptide 10^-8 M, 24 h pre-incubation, UVA 10 J/cm^2, human dermal fibroblasts, FIG. 1, p<0.001
Protocol: The modulating effect of the tripeptides Lys-Pro-Val (KPV), Lys-D-Pro-Thr (KPT) and Thyrotropin Releasing Hormones (TRH, Protirelin, Thyoliberin, pGlu-His-Pro) was examined on human dermal fibroblasts that were seeded into 3.5 cm^2 tissue culture dishes in a density of 150,000 per dish in […] medium. Two days after seeding the cells, the medium supplemented with 10% foetal calf serum, 1% L-glutamine and 1% penicillin/streptomycin was exchanged with serum-free RPMI medium and pre-incubated for 24 hours with KPV, […] Subsequently, the cells were exposed to a physiological dose of UVA radiation (10 J/cm^2). Immediately after radiation, the cells were incubated with 5 μM dihydrorhodamine 123 plus 5 mM glucose in phosphate buffer (PBS) for 30 minutes. Subsequently, the cells were trypsinized, resuspended in PBS with 5 mM glucose and analyzed by means of flow cytometry (FACS, FACSCalibur with 488 nm argon laser). The above dihydrorhodamine probe is oxidized in the presence of intracellular ROS into green fluorescent […] and, thus, can be measured fluorometrically. A total of 10×10^3 cells per probe were analyzed and evaluated using CELL-QUEST software. The median of the FL-1 channel was used as parameter for the intracellular ROS amount, since it represents the maximum number of cells with the highest fluorescence. Duplicate and triplicate analyses were carried out and all assays were reproduced three times in independent experiments.

B16.F1 melanoma cells = experiment: Extracellular melanin accumulation (in situ melanin assay, optical density 405 nm); type: cell-based, mouse; conditions: 72 hrs; for melanotropic effect (extracellular melanin accumulation): peptides at 10^-6, 10^-8 and 10^-10 M, FIG. 3
From the text: It is also preferred that the compounds of the invention have no or merely a negligible melanotropic effect. “Melanotropic effect” means that the compound induces the extracellular melanin accumulation in a cell assay in accordance with the method described in the appended example 2 and/or in accordance with the method described in Siegrist and Eberle (Anal. Biochem. 1986; 159; 191-197), title “In situ melanin assay for MSH using mouse B16 melanoma cells in culture”. “No or negligible” means that the mean melanin accumulation which is induced by the compounds of the invention exceeds the mean melanin accumulation which is induced by at least one of the two compounds as exemplified in Example 2 by not more than about 40%, 30%, 20%, 15%, 10%, 5%, 2.5%, 2% or 1%, preferably under conditions which equate to or are identical with those set out in Example 2. The skilled person is able to justify which assay conditions/assays equate with the assay/conditions exemplified in the appended examples. The melanin accumulation evaluated in Example 2 is depicted in FIG. 3. The effect of the compounds of the invention on extracellular melanin accumulation is thus determinable by the methods disclosed herein.
To exclude a potential melanotropic effect of KPT and KPV, 2500 B16.F1 melanoma cells were seeded out on 96-well tissue culture plates in quintuplicate at a density of 2500 cells/well in regular culture medium. On the next day routine medium was changed to medium containing the above peptides at 10^−6, 10^−8 and 10^−10 M vs. medium containing the superpotent MSH analogue NDP-α-MSH (10^−8 M). The latter served as positive control while cells without any other stimulus served as negative control. Cells were then cultured for 72 hrs followed by photometric measurement of the optical density (wavelength 405 nm) of each well. This procedure measures the amount of extracellular melanin produced by the cells according to the well-established and described methodology by Siegrist & Eberle, Anal. Biochem. 1986; 159: 191-197.

## NC(=O)[C@@H]1CCCN1C(=O)[C@H](Cc1c[nH]cn1)NC(=O)[C@@H]1CCC(=O)N1 [TRH, L-Pyroglutamyl-L-histidyl-L-prolinamid]
Human dermal fibroblasts
  antioxidative protective effects in human dermal fibroblasts (summary statement): show antioxidative protective effects
  effect on UVA-induced intracellular amplification of ROS compared with vitamin C (ascorbate): comparable with that of vitamin C
  effect on UVA-induced intracellular amplification of ROS ("oxidative stress"): suppressed UVA-induced intracellular amplification of ROS

## Lys-Pro-Val [KPV]
Human dermal fibroblasts
  antioxidative protective effects in human dermal fibroblasts (summary statement): show antioxidative protective effects
  effect on UVA-induced intracellular amplification of ROS ("oxidative stress"): suppressed UVA-induced intracellular amplification of ROS
B16.F1 melanoma cells
  melanotropic effect (extracellular melanin accumulation): did not have any melanotropic effect

## Lys-[dP]-Thr [KPT]
Human dermal fibroblasts
  antioxidative protective effects in human dermal fibroblasts (summary statement): show antioxidative protective effects
  effect on UVA-induced intracellular amplification of ROS compared with vitamin C (ascorbate): comparable with that of vitamin C
  effect on UVA-induced intracellular amplification of ROS ("oxidative stress"): suppressed UVA-induced intracellular amplification of ROS
B16.F1 melanoma cells
  melanotropic effect (extracellular melanin accumulation): did not have any melanotropic effect

## NDP-α-MSH [reference compound]
B16.F1 melanoma cells; 10^-8 M
  melanotropic effect (extracellular melanin accumulation), positive control: p<0.001 vs. control
